Reference: patent US20210009564A1, “CALPAIN MODULATORS AND THERAPEUTIC USES THEREOF” (BLADE THERAPERTICS, INC., priority 2018, published 2021)

Experiments:
[1] = molecular target: T1, Human Calpain 9/NS1 (Homo sapiens, UniProt O14815); assay: Calpain inhibition, continuous fluorescence (FRET substrate) assay, calpain 9; type: biochemical; conditions: SensoLyte 520 FRET substrate, 25C
T1 sequence (O14815 1-690): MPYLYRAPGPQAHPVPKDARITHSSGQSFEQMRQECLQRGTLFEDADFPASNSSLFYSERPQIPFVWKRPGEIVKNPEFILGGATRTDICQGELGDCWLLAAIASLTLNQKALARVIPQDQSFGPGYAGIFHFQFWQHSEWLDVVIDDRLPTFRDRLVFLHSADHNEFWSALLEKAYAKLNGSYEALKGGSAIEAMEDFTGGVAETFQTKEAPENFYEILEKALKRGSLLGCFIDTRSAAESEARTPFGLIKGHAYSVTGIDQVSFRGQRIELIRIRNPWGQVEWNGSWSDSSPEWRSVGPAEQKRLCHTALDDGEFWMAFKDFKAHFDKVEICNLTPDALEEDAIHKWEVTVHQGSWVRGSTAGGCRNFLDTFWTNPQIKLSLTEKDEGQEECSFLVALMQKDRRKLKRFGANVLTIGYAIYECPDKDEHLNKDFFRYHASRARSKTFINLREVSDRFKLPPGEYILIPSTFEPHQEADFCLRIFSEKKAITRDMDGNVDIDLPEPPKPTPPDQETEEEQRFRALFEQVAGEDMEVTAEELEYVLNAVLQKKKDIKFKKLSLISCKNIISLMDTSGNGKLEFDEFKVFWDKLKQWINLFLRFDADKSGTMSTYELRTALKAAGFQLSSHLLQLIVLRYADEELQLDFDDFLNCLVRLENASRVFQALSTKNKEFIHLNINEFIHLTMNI
T1 sequence (P04632 1-268 partner): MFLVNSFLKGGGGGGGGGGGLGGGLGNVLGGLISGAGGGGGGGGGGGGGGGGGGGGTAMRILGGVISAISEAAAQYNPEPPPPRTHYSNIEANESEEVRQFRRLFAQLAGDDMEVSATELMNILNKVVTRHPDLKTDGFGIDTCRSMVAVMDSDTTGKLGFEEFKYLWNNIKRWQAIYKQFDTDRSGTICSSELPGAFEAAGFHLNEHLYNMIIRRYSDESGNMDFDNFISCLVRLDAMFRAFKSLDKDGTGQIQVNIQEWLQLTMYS
In short: (§1)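 Continuous FRET read-out (ex 490/em 520 nm) of 5-FAM/QXL 520 substrate cleavage, started by adding substrate with CaCl2 for in-situ activation after enzyme–inhibitor preincubation at 25 °C. Buffer was Tris 50 mM pH 7.5, NaCl 100 mM, DTT 1 mM. IC50 fitted (4-parameter) from rates over 1-5 min.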

[2] = system: Calpain activity in SH-SY5Y cells; assay: SH-SY5Y spectrin breakdown product (SBDP-150) western blot assay; type: cell-based; conditions: Homo sapiens, read-out: SH-SY5Y Spectrin IC50
[3] = system: Calpain activity in SH-SY5Y cells; assay: SH-SY5Y Suc-LLVY-AMC fluorescence assay; type: cell-based; conditions: Homo sapiens, read-out: SH-SY5Y + AMC IC50
[4] = molecular target: T2, Human Calpain 2/NS1 (Homo sapiens, UniProt P17655); assay: Calpain inhibition, continuous fluorescence (FRET substrate) assay, calpain 2; type: biochemical; conditions: SensoLyte 520 FRET substrate, 25C
T2 sequence (P17655 1-700): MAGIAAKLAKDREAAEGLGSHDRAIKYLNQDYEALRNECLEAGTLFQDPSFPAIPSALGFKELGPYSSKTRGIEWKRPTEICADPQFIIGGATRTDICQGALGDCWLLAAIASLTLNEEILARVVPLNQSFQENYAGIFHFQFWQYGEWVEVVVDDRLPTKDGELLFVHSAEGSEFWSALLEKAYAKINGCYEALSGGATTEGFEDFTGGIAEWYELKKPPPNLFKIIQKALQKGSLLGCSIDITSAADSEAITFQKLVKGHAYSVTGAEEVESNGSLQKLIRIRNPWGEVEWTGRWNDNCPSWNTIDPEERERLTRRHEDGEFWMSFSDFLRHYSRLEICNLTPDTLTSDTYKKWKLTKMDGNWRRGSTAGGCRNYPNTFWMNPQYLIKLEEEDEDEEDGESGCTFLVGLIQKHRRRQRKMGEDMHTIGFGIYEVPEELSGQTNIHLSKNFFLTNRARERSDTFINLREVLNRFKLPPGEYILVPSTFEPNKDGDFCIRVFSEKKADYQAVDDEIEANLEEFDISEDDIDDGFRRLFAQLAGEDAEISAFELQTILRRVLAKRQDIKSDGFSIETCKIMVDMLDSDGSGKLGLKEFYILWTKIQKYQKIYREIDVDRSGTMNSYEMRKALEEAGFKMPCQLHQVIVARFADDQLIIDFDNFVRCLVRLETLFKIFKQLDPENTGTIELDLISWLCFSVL
T2 sequence (P04632 1-268 partner): T1 sequence (P04632 1-268 partner)
In short: as §1

[5] = molecular target: T3, Human Calpain 1/NS1 (Homo sapiens, UniProt P07384); assay: Calpain inhibition, continuous fluorescence (FRET substrate) assay, calpain 1; type: biochemical; conditions: SensoLyte 520 FRET substrate, 25C
T3 sequence (P07384 1-714): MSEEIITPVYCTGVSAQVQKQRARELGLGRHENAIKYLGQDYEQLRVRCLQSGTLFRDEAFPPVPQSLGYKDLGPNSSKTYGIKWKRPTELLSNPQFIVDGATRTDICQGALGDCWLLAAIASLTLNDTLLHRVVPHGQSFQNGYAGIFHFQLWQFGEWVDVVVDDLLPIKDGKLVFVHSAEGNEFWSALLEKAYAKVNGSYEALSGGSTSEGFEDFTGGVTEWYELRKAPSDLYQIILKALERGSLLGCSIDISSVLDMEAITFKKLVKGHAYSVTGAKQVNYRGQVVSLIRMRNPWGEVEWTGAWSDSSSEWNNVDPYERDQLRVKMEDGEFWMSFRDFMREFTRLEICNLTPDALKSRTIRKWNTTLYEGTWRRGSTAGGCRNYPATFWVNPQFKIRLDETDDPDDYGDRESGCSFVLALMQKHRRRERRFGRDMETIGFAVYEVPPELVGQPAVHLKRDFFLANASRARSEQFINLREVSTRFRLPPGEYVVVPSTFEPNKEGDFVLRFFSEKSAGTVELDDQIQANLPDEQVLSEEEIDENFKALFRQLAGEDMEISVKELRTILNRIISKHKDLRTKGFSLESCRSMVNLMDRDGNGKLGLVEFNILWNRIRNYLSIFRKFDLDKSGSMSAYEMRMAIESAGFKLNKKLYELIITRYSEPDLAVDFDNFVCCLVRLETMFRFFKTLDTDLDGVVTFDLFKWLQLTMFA
T3 sequence (P04632 1-268 partner): T1 sequence (P04632 1-268 partner)
In short: as §1

[6] = SH-SY5Y cells, 25 uM A23187, SBDP-150 western blot
[7] = SH-SY5Y cells, 100 uM Suc-LLVY-AMC

IC50 [1] [µM] | IC50 [2, 6] [µM] | IC50 [3, 7] [µM] | IC50 [4] [µM] | IC50 [5] [µM] | Compound | IC50 ([2]; SH-SY5Y) [µM] | IC50 ([3]; SH-SY5Y) [µM]
< 3 | < 10 | < 10 | < 3 | < 3 | Cc1occc1-c1nn(C(F)F)cc1C(=O)NC(Cc1ccccc1)C(=O)C(N)=O (centres unmarked) [Compound 26, N-(4-AMINO-3,4-DIOXO-1-PHENYLBUTAN-2-YL)-1-(DIFLUOROMETHYL)-3-(2-METHYLFURAN-3-YL)-1H-PYRAZOLE-4-CARBOXAMIDE] | – | –
3 to 10 | > 25 | < 10 | 3 to 10 | > 10 | Cc1cc(C(=O)NC(Cc2ccccc2)C(=O)C(N)=O)nn1-c1ncc2ccccc2n1 (centres unmarked) [Compound 27, N-(4-AMINO-3,4-DIOXO-1-PHENYLBUTAN-2-YL)-5-METHYL-1-(QUINAZOLIN-2-YL)-1H-PYRAZOLE-3-CARBOXAMIDE] | – | –
< 3 | > 25 | < 10 | < 3 | < 3 | Cc1occc1-c1nn(C)cc1C(=O)NC(Cc1ccccc1)C(=O)C(N)=O (centres unmarked) [Compound 28, N-(4-AMINO-3,4-DIOXO-1-PHENYLBUTAN-2-YL)-1-METHYL-3-(2-METHYLFURAN-3-YL)-1H-PYRAZOLE-4-CARBOXAMIDE] | – | –
< 3 | < 10 | < 10 | < 3 | < 3 | Cn1cc(C(=O)NC(Cc2ccccc2)C(=O)C(N)=O)c(-c2cccc3ncoc23)n1 (centres unmarked) [Compound 31, N-(4-AMINO-3,4-DIOXO-1-PHENYLBUTAN-2-YL)-3-(BENZO[D]OXAZOL-7-YL)-1-METHYL-1H-PYRAZOLE-4-CARBOXAMIDE] | – | –

More lines, now with the values behind:

Compound | IC50 [1] [µM] | IC50 [2, 6] [µM] | IC50 [3, 7] [µM] | IC50 [4] [µM] | IC50 [5] [µM] | IC50 ([2]; SH-SY5Y) [µM] | IC50 ([3]; SH-SY5Y) [µM]
Cc1cc(-c2nn(C(F)F)cc2C(=O)NC(Cc2ccccc2)C(=O)C(N)=O)c(C)o1 (centres unmarked) [Compound 24, N-(4-AMINO-3,4-DIOXO-1-PHENYLBUTAN-2-YL)-1-(DIFLUOROMETHYL)-3-(2,5-DIMETHYLFURAN-3-YL)-1H-PYRAZOLE-4-CARBOXAMIDE] | < 3 | 10 to 25 | < 10 | < 3 | < 3 | – | –
Cc1cc(C(=O)NC(Cc2ccccc2)C(=O)C(N)=O)nn1-c1ncc(-c2ccccc2)cn1 (centres unmarked) [Compound 29, N-(4-AMINO-3,4-DIOXO-1-PHENYLBUTAN-2-YL)-5-METHYL-1-(5-PHENYLPYRIMIDIN-2-YL)-1H-PYRAZOLE-3-CARBOXAMIDE] | 3 to 10 | – | – | < 3 | 3 to 10 | > 25 | < 10
Cc1cc(C(=O)NC(Cc2ccccc2)C(=O)C(N)=O)n(-c2ncc(-c3ccccc3)cn2)n1 (centres unmarked) [Compound 30, N-(4-AMINO-3,4-DIOXO-1-PHENYLBUTAN-2-YL)-3-METHYL-1-(5-PHENYLPYRIMIDIN-2-YL)-1H-PYRAZOLE-5-CARBOXAMIDE] | < 3 | – | – | < 3 | < 3 | < 10 | > 25
